Where a SMILES comes first, the peptide text is derived from it.
biological target: HLA A*3001 (Homo sapiens, UniProt P04439, D140H/D185E/E176W/F33S/G80R/H175R/K168Q/R138E/R41S); assay: biochemical; assay type: binding
Sequence (P04439 25-365 limits assumed, stated change not applied): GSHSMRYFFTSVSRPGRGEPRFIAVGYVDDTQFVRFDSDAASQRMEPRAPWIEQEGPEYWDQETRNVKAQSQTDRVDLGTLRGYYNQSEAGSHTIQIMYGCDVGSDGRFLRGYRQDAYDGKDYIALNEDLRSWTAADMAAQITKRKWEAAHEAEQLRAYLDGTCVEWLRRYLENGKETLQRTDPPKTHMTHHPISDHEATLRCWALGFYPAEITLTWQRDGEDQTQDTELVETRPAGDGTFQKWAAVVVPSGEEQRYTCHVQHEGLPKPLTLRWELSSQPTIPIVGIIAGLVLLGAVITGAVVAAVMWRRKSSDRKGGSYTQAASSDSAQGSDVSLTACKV

First: CC(C)C[C@H](NC(=O)[C@H](CO)NC(=O)[C@H](CCC(N)=O)NC(=O)[C@@H](N)Cc1ccc(O)cc1)C(=O)N[C@@H](CO)C(=O)N1CCC[C@H]1C(=O)N1CCC[C@H]1C(=O)N1CCC[C@H]1C(=O)N[C@@H](Cc1ccccc1)C(=O)O [3102.1242] (H-YQSLSPPPF-OH)
Second: CC[C@H](C)[C@H](NC(=O)[C@H](CC(=O)O)NC(=O)[C@H](CC(C)C)NC(=O)[C@@H](NC(=O)[C@@H](N)CCCCN)[C@@H](C)O)C(=O)N[C@@H](CO)C(=O)N[C@@H](CO)C(=O)N[C@@H](Cc1ccccc1)C(=O)N[C@@H](Cc1ccc(O)cc1)C(=O)O [3102.0151] (H-KTLDISSFY-OH)
The IC50 of the first is 46-fold lower: 0.5 nM for the first, 23 nM for the second.

`CC(C)C[C@H](NC(=O)[C@H](CC(N)=O)NC(=O)[C@@H](NC(=O)[C@H](CC(C)C)NC(=O)[C@H](CCCNC(=N)N)NC(=O)[C@H](CCC(N)=O)NC(=O)[C@@H](N)CCCCN)[C@@H](C)O)C(=O)N[C@@H](CCC(=O)O)C(=O)N[C@@H](CCCCN)C(=O)O` [3102.0243] (H-KQRLTNLEK-OH) and `CC[C@H](C)[C@H](NC(=O)[C@@H](NC(=O)[C@@H](N)CCCCN)C(C)C)C(=O)N[C@H](C(=O)N[C@@H](CCCNC(=N)N)C(=O)N[C@@H](CC(N)=O)C(=O)N[C@@H](CC(C)C)C(=O)N[C@@H](CC(N)=O)C(=O)N[C@@H](CCCCN)C(=O)O)C(C)C` [3102.0191] (H-KVIVRNLNK-OH) are within 1.5-fold of each other in IC50: 0.95 nM for the first, 1.4 nM for the second.

`CC[C@H](C)[C@H](NC(=O)[C@H](C)NC(=O)[C@H](CCCNC(=N)N)NC(=O)[C@@H](NC(=O)[C@@H](N)CCCNC(=N)N)[C@@H](C)O)C(=O)N[C@@H](CC(N)=O)C(=O)N[C@@H](CCCCN)C(=O)N[C@@H](Cc1ccc(O)cc1)C(=O)N[C@@H](CO)C(=O)O` [3102.0141] (H-RTRAINKYS-OH) and `CC[C@H](C)[C@H](NC(=O)[C@@H](N)CO)C(=O)N[C@@H](CCCNC(=N)N)C(=O)N[C@@H](CCCNC(=N)N)C(=O)N[C@@H](CC(N)=O)C(=O)N[C@@H](CC(C)C)C(=O)N[C@@H](C)C(=O)N[C@@H](CC(C)C)C(=O)N[C@@H](CCCCN)C(=O)O` [3102.0157] (H-SIRRNLALK-OH) are within 1.5-fold of each other in IC50: 13 nM for the first, 12 nM for the second.

First: CC[C@H](C)[C@H](NC(=O)[C@H](CC(N)=O)NC(=O)[C@H](CC(=O)O)NC(=O)[C@H](CO)NC(=O)[C@H](CCCNC(=N)N)NC(=O)[C@@H](NC(=O)[C@@H](N)CCCCN)[C@@H](C)CC)C(=O)N[C@@H](CCCCN)C(=O)N[C@@H](CCCCN)C(=O)O [3102.0051] (H-KIRSDNIKK-OH)
Second: CC[C@H](C)[C@H](NC(=O)[C@H](CCCCN)NC(=O)[C@H](CO)NC(=O)[C@@H](NC(=O)[C@@H](NC(=O)[C@H](CCCCN)NC(=O)[C@H](CCCNC(=N)N)NC(=O)[C@@H](NC(=O)[C@@H](N)CCCCN)C(C)C)[C@@H](C)CC)[C@@H](C)CC)C(=O)O [3102.0153] (H-KVRKIISKI-OH)
The IC50 of the first is 2.2-fold lower: 12 nM for the first, 27 nM for the second.

`CC[C@H](C)[C@H](N)C(=O)N[C@H](C(=O)N[C@@H](CCCCN)C(=O)N[C@@H](CO)C(=O)N[C@@H](CO)C(=O)N[C@@H](Cc1ccc(O)cc1)C(=O)N[C@H](C(=O)N[C@@H](Cc1ccccc1)C(=O)N[C@@H](CCCCN)C(=O)O)C(C)C)[C@@H](C)CC` [3102.0029] (H-IIKSSYVFK-OH) and `CC[C@H](C)[C@H](N)C(=O)N[C@@H](CO)C(=O)N[C@@H](CCCNC(=N)N)C(=O)N[C@@H](Cc1ccccc1)C(=O)N[C@@H](C)C(=O)N[C@@H](CC(N)=O)C(=O)N[C@@H](CC(C)C)C(=O)N[C@H](C(=O)N[C@@H](CCCCN)C(=O)O)[C@@H](C)CC` [3102.0098] (H-ISRFANLIK-OH) are within 1.5-fold of each other in IC50: 11 nM for the first, 13 nM for the second.

Compared with `CC[C@H](C)[C@H](NC(=O)[C@H](Cc1ccc(O)cc1)NC(=O)[C@H](C)NC(=O)[C@H](C)NC(=O)[C@H](Cc1c[nH]cn1)NC(=O)[C@H](CO)NC(=O)[C@H](CCCCN)NC(=O)[C@H](CO)NC(=O)[C@@H](N)CCSC)C(=O)O` [3102.0207] (H-MSKSHAAYI-OH), `CC[C@H](C)[C@H](NC(=O)[C@H](Cc1ccccc1)NC(=O)[C@H](CCCCN)NC(=O)[C@H](Cc1ccc(O)cc1)NC(=O)[C@H](Cc1ccccc1)NC(=O)[C@H](C)NC(=O)[C@H](CCCCN)NC(=O)[C@@H](NC(=O)[C@@H](N)Cc1c[nH]cn1)C(C)C)C(=O)O` [3102.0138] (H-HVKAFYKFI-OH) is 1.5-fold higher in IC50: 0.23 nM for the first, 0.35 nM for the second. The first is the more potent here.

Compared with `CSCC[C@H](N)C(=O)N[C@H](C(=O)N[C@@H](CCCNC(=N)N)C(=O)N[C@@H](CC(C)C)C(=O)N[C@H](C(=O)N[C@H](C(=O)N[C@@H](CCC(N)=O)C(=O)NCC(=O)N[C@@H](CC(C)C)C(=O)O)[C@@H](C)O)[C@@H](C)O)C(C)C` [3102.0012] (H-MVRLTTQGL-OH), `CC[C@H](C)[C@H](NC(=O)[C@H](CCCCN)NC(=O)[C@@H](NC(=O)[C@@H](N)CCCNC(=N)N)[C@@H](C)O)C(=O)N[C@H](C(=O)N[C@@H](CO)C(=O)N[C@@H](CC(C)C)C(=O)N1CCC[C@H]1C(=O)N[C@@H](CC(C)C)C(=O)O)[C@@H](C)O` [3102.0201] (H-RTKITSLPL-OH) is 95-fold lower in IC50: 8.3 nM for the first, 0.087 nM for the second.

Going from `CC[C@H](C)[C@H](N)C(=O)N[C@H](C(=O)N[C@@H](CCCCN)C(=O)N[C@H](C(=O)N[C@@H](CC(N)=O)C(=O)N[C@H](C(=O)N[C@@H](Cc1c[nH]cn1)C(=O)N[C@@H](CC(C)C)C(=O)N[C@@H](C)C(=O)O)[C@@H](C)O)[C@@H](C)CC)[C@@H](C)O` [3102.0001] (H-ITKINTHLA-OH) to `CC[C@H](C)[C@H](NC(=O)[C@@H](NC(=O)[C@H](CCCCN)NC(=O)[C@H](CO)NC(=O)[C@H](C)N)[C@@H](C)O)C(=O)N[C@@H](CC(N)=O)C(=O)N[C@@H](C)C(=O)N[C@@H](CC(C)C)C(=O)N[C@H](C(=O)O)C(C)C` [3102.0095] (H-ASKTINALV-OH), the IC50 falls from 15 nM to 0.18 nM (83-fold).

Compared with `CSCC[C@H](NC(=O)[C@H](CC(N)=O)NC(=O)[C@H](CCCNC(=N)N)NC(=O)[C@@H](NC(=O)[C@@H](N)CCCNC(=N)N)[C@@H](C)O)C(=O)N[C@@H](Cc1ccccc1)C(=O)N[C@@H](CCCNC(=N)N)C(=O)N[C@@H](CCCCN)C(=O)N[C@@H](CCCCN)C(=O)O` [3102.0060] (H-RTRNMFRKK-OH), `CSCC[C@H](N)C(=O)N[C@@H](CCCNC(=N)N)C(=O)N[C@@H](CCCNC(=N)N)C(=O)N[C@@H](CCC(=O)O)C(=O)N[C@@H](CCCNC(=N)N)C(=O)N[C@@H](C)C(=O)N[C@@H](C)C(=O)N[C@@H](Cc1ccc(O)cc1)C(=O)N[C@H](C(=O)O)C(C)C` [3102.0232] (H-MRRERAAYV-OH) is 250-fold higher in IC50: 0.089 nM for the first, 22 nM for the second.

Going from `CC[C@H](C)[C@H](NC(=O)[C@H](Cc1c[nH]cn1)NC(=O)[C@H](Cc1ccc(O)cc1)NC(=O)[C@H](C)NC(=O)[C@H](CCCCN)NC(=O)[C@@H](N)CCCNC(=N)N)C(=O)N[C@H](C(=O)N[C@@H](Cc1ccccc1)C(=O)N[C@@H](Cc1ccccc1)C(=O)O)[C@@H](C)CC` [3102.1054] (H-RKAYHIIFF-OH) to `CC[C@H](C)[C@H](NC(=O)[C@H](Cc1c[nH]cn1)NC(=O)[C@H](Cc1ccccc1)NC(=O)[C@H](CO)NC(=O)[C@@H](NC(=O)[C@@H](N)CCCCN)[C@@H](C)O)C(=O)N[C@H](C(=O)N[C@@H](Cc1ccccc1)C(=O)N[C@@H](CC(C)C)C(=O)O)[C@@H](C)CC` [3102.0050] (H-KTSFHIIFL-OH), the IC50 rises from 5.4 nM to 25 nM (4.6-fold).

`CC[C@H](C)[C@H](NC(=O)[C@H](CCCCN)NC(=O)[C@@H](NC(=O)[C@@H](N)CCCCN)[C@@H](C)O)C(=O)N[C@@H](CC(=O)O)C(=O)N[C@H](C(=O)N[C@H](C(=O)N[C@@H](Cc1ccccc1)C(=O)N[C@@H](C)C(=O)O)[C@@H](C)CC)[C@@H](C)CC` [3102.0285] (H-KTKIDIIFA-OH) and `CC[C@H](C)[C@H](N)C(=O)N[C@@H](CO)C(=O)N[C@@H](CCCNC(=N)N)C(=O)N[C@@H](CC(N)=O)C(=O)N[C@@H](CCCCN)C(=O)N[C@@H](CC(N)=O)C(=O)N[C@H](C(=O)N[C@@H](Cc1ccccc1)C(=O)N[C@H](C(=O)O)C(C)C)[C@@H](C)CC` [3102.0199] (H-ISRNKNIFV-OH) are within 1.5-fold of each other in IC50: 10 nM for the first, 7.3 nM for the second.

First: CC[C@H](C)[C@H](NC(=O)[C@H](CO)NC(=O)[C@@H](NC(=O)[C@@H](N)CCCCN)C(C)C)C(=O)N[C@@H](CC(C)C)C(=O)N[C@@H](Cc1c[nH]cn1)C(=O)N1CCC[C@H]1C(=O)N[C@H](C(=O)N[C@@H](CO)C(=O)O)[C@@H](C)CC [3102.0159] (H-KVSILHPIS-OH)
Second: CC[C@H](C)[C@H](NC(=O)[C@H](CCCNC(=N)N)NC(=O)[C@@H]1CCCN1C(=O)[C@H](CO)NC(=O)[C@H](C)NC(=O)[C@H](CCCNC(=N)N)NC(=O)[C@H](CO)NC(=O)[C@@H](N)Cc1c[nH]cn1)C(=O)NCC(=O)O [3102.0216] (H-HSRASPRIG-OH)
The IC50 of the first is 12-fold higher: 11 nM for the first, 0.93 nM for the second.

First: CC[C@H](C)[C@H](NC(=O)[C@H](CCSC)NC(=O)[C@H](CC(C)C)NC(=O)[C@@H]1CCCN1C(=O)[C@H](CCCNC(=N)N)NC(=O)[C@H](Cc1ccccc1)NC(=O)[C@@H](N)CCCCN)C(=O)N[C@@H](Cc1ccccc1)C(=O)N[C@@H](CCSC)C(=O)O [3102.0084] (H-KFRPLMIFM-OH)
Second: CC(C)C[C@H](NC(=O)[C@H](CCCCN)NC(=O)[C@H](Cc1ccccc1)NC(=O)[C@@H](N)CCCCN)C(=O)N[C@H](C(=O)N[C@@H](CC(C)C)C(=O)N1CCC[C@H]1C(=O)N[C@@H](CC(N)=O)C(=O)N[C@@H](CCCCN)C(=O)O)[C@@H](C)O [3102.0261] (H-KFKLTLPNK-OH)
The IC50 of the first is 6.7-fold lower: 1.8 nM for the first, 12 nM for the second. The first is the more potent here.

`CSCC[C@H](NC(=O)[C@H](CCCNC(=N)N)NC(=O)CNC(=O)[C@H](CO)NC(=O)[C@H](CO)NC(=O)[C@@H](NC(=O)[C@@H](N)CCCCN)[C@@H](C)O)C(=O)N1CCC[C@H]1C(=O)N[C@H](C(=O)O)C(C)C` [3102.0119] (H-KTSSGRMPV-OH) and `C[C@@H](O)[C@H](NC(=O)[C@H](CO)NC(=O)CNC(=O)[C@H](CCCNC(=N)N)NC(=O)[C@H](CC(N)=O)NC(=O)CN)C(=O)N[C@@H](CO)C(=O)N[C@@H](Cc1ccccc1)C(=O)N[C@@H](CCCCN)C(=O)O` [3102.0043] (H-GNRGSTSFK-OH) are the same in IC50: 2 nM for the first, 2 nM for the second.

biological target: HLA B*1503 (Homo sapiens, UniProt P01889, A329T/A93T/A95T/C349S/D201E/D98Y/E187L/E204Q/K202T/N87E/Q94N/R155S/R180L/S121R/S35A/V306I/V36M/Y140S/Y91S); assay: biochemical; assay type: binding

Going from `CC(C)C[C@H](NC(=O)[C@H](CO)NC(=O)[C@H](CCC(N)=O)NC(=O)[C@@H](N)Cc1ccc(O)cc1)C(=O)N[C@@H](CO)C(=O)N1CCC[C@H]1C(=O)N1CCC[C@H]1C(=O)N1CCC[C@H]1C(=O)N[C@@H](Cc1ccccc1)C(=O)O` [3102.1242] (H-YQSLSPPPF-OH) to `CC[C@H](C)[C@H](NC(=O)[C@H](Cc1c[nH]cn1)NC(=O)[C@H](Cc1ccc(O)cc1)NC(=O)[C@H](C)NC(=O)[C@H](CCCCN)NC(=O)[C@@H](N)CCCNC(=N)N)C(=O)N[C@H](C(=O)N[C@@H](Cc1ccccc1)C(=O)N[C@@H](Cc1ccccc1)C(=O)O)[C@@H](C)CC` [3102.1054] (H-RKAYHIIFF-OH), the IC50 falls from 0.061 nM to 0.037 nM (1.6-fold).
